{"source": "patent US20060046968A1", "about": "“Prodrug substituted benzoxazoles as estrogenic agents” (priority 2004, published 2006)", "key": {"[1]": {"system": "Sexually immature 129 SvE mice", "test": "Mouse uterotrophic test procedure (Procedure 2)", "assay_type": "in vivo", "settings": "compound 50 mg/kg s.c., days 22-25"}, "[2]": {"system": "Progesterone receptor mRNA", "test": "Progesterone receptor mRNA regulation in the preoptic area of the rat brain", "assay_type": "in vivo", "settings": "10 mg/kg"}, "Male HLA-B27 rats [3]": {"system": "Male HLA-B27 rats", "test": "HLA rat test for inflammatory bowel disease: stool character (3 = diarrhea; 2 = soft stool; 1 = normal stool)", "assay_type": "in vivo", "settings": "Study B, oral 10 mg/kg"}, "Male HLA-B27 rats [4]": {"system": "Male HLA-B27 rats", "test": "HLA-B27 rat model of arthritis: joint scores", "assay_type": "in vivo", "settings": "Study 2, oral 10 mg/kg"}, "Male HLA-B27 rats [5]": {"system": "Male HLA-B27 rats", "test": "HLA-B27 rat test for inflammatory bowel disease: histological scoring of colon", "assay_type": "in vivo", "settings": "Study B; oral 4 weeks; 10 mg/kg", "procedure": "Representative metabolites of compounds of the invention were evaluated in the HLA rat standard pharmacological test procedure, which emulates inflammatory bowel disease in humans. The following briefly describes the procedure used and results obtained. […] Louis) and water. Stool quality was observed daily and graded according to the following scale: Diarrhea=3; soft stool=2; normal stool=1. At the end of the study, serum was collected and stored at −70° C. A section of colon was prepared for histological analysis and an additional segment was analyzed for myeloperoxidase activity. In Study A, rats (22-26 weeks old) were dosed subcutaneously once per day for seven days with one of the regimens listed below. […] Histological analysis. Colonic tissue was immersed in 10% neutral buffered formalin. Each specimen of colon was separated into four samples for evaluation. The formalin-fixed tissues were processed in a Tissue-Tek® vaccum infiltration processor (Miles, Inc; West Haven, Conn.) for paraffin embedding. The samples were sectioned at 5 μm and then stained with hematoxylin and eosin (H&E) for blinded histological evaluations using a scale modified after Boughton-Smith. After the scores were completed, the samples were unblinded, and data were tabulated and analyzed by ANOVA linear modeling with multiple mean comparisons. Sections of colonic tissue were evaluated for several disease indicators and given relative scores."}, "human ERα": {"molecular_target": "T1, human ERα (Homo sapiens, UniProt P03372)", "T1 construct": "These templates contained amino acids M250-V595 of human ERα; His (N); Flag (C); made in house; host or cells: E. coli BL21 (DE3), clarified lysate", "T1 sequence (P03372 250-595)": "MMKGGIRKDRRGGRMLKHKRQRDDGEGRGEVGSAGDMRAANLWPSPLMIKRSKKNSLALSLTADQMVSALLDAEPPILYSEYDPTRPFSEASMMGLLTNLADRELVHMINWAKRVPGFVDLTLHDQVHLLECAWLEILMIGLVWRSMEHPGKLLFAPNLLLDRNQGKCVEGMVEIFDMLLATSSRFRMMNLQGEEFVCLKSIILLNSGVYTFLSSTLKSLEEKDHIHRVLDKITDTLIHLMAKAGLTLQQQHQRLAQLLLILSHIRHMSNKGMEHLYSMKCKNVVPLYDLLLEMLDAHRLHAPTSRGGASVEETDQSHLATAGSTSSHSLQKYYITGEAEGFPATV", "test": "ER radioligand binding competition, ERα", "settings": "competition with [3H]-17β-estradiol; read-out: ER-α IC50"}, "human ERβ": {"molecular_target": "T2, human ERβ (Homo sapiens, UniProt Q92731)", "T2 construct": "Flag (C); made in house; host or cells: E. coli BL21 (DE3), clarified lysate", "T2 sequence (Q92731 214-530)": "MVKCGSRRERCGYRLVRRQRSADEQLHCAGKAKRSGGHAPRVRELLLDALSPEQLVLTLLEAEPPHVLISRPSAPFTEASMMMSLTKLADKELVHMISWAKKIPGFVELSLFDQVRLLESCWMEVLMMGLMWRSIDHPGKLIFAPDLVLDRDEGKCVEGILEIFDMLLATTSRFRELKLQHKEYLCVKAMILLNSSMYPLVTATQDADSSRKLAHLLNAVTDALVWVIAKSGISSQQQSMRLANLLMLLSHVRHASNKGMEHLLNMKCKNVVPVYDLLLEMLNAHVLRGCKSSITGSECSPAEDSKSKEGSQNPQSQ", "test": "ER radioligand binding competition, ERβ"}}}
{"smiles": "C=Cc1cc(O)cc2nc(-c3ccc(O)c(F)c3F)oc12", "note": "[Example 26, 2-(2,3-DIFLUORO-4-HYDROXYPHENYL)-7-VINYL-1,3-BENZOXAZOL-5-OL]", "values": [{"measurement": "mean uterine weight ± SEM", "setting": "[1]", "value": "9.0 ± 0.3", "unit": "mg"}, {"measurement": "Progesterone receptor mRNA (mean ± stdev)", "setting": "[2]", "value": "467.8 ± 66.7", "unit": "arbitrary units"}]}
{"smiles": "C=CCc1cc(O)cc2nc(-c3ccc(O)c(F)c3)oc12", "note": "[Example 34, 7-ALLYL-2-(3-FLUORO-4-HYDROXYPHENYL)-1,3-BENZOXAZOL-5-OL]", "values": [{"measurement": "Progesterone receptor mRNA (mean ± stdev)", "setting": "[2]", "value": "511.5 ± 23.7", "unit": "arbitrary units"}, {"measurement": "Stool Character (group's average score)", "setting": "Male HLA-B27 rats [3]; Day 1", "value": 1}, {"measurement": "Stool Character (group's average score)", "setting": "Male HLA-B27 rats [3]; Day 2", "value": 1}, {"measurement": "Stool Character (group's average score)", "setting": "Male HLA-B27 rats [3]; Day 3", "value": 1}, {"measurement": "Stool Character (group's average score)", "setting": "Male HLA-B27 rats [3]; Day 4", "value": 1.25}, {"measurement": "Stool Character (group's average score)", "setting": "Male HLA-B27 rats [3]; Day 5", "value": 2}, {"measurement": "Stool Character (group's average score)", "setting": "Male HLA-B27 rats [3]; Day 6", "value": 1.75}, {"measurement": "Stool Character (group's average score)", "setting": "Male HLA-B27 rats [3]; Day 7", "value": 1.75}, {"measurement": "Stool Character (group's average score)", "setting": "Male HLA-B27 rats [3]; Day 8", "value": 1.5}, {"measurement": "Stool Character (group's average score)", "setting": "Male HLA-B27 rats [3]; Day 9", "value": 1.5}, {"measurement": "Stool Character (group's average score)", "setting": "Male HLA-B27 rats [3]; Day 10", "value": 1.25}, {"measurement": "Stool Character (group's average score)", "setting": "Male HLA-B27 rats [3]; Day 11", "value": 1.5}, {"measurement": "Stool Character (group's average score)", "setting": "Male HLA-B27 rats [3]; Day 12", "value": 1.5}, {"measurement": "Stool Character (group's average score)", "setting": "Male HLA-B27 rats [3]; Day 13", "value": 1.25}, {"measurement": "Stool Character (group's average score)", "setting": "Male HLA-B27 rats [3]; Day 14", "value": 1.25}, {"measurement": "Stool Character (group's average score)", "setting": "Male HLA-B27 rats [3]; Day 15", "value": 1.25}, {"measurement": "Stool Character (group's average score)", "setting": "Male HLA-B27 rats [3]; Day 16", "value": 1}, {"measurement": "Stool Character (group's average score)", "setting": "Male HLA-B27 rats [3]; Day 17", "value": 1}, {"measurement": "Stool Character (group's average score)", "setting": "Male HLA-B27 rats [3]; Day 18", "value": 1.25}, {"measurement": "Stool Character (group's average score)", "setting": "Male HLA-B27 rats [3]; Day 19", "value": 1}, {"measurement": "Stool Character (group's average score)", "setting": "Male HLA-B27 rats [3]; Day 22", "value": 1}, {"measurement": "Stool Character (group's average score)", "setting": "Male HLA-B27 rats [3]; Day 23", "value": 1}, {"measurement": "Stool Character (group's average score)", "setting": "Male HLA-B27 rats [3]; Day 24", "value": 1}, {"measurement": "Stool Character (group's average score)", "setting": "Male HLA-B27 rats [3]; Day 25", "value": 1}, {"measurement": "Stool Character (group's average score)", "setting": "Male HLA-B27 rats [3]; Day 26", "value": 1}, {"measurement": "Joint inflammation score", "setting": "Male HLA-B27 rats [4]; Day 1", "value": 0}, {"measurement": "Joint inflammation score", "setting": "Male HLA-B27 rats [4]; Day 2", "value": 0}, {"measurement": "Joint inflammation score", "setting": "Male HLA-B27 rats [4]; Day 3", "value": 0}, {"measurement": "Joint inflammation score", "setting": "Male HLA-B27 rats [4]; Day 4", "value": 0}, {"measurement": "Joint inflammation score", "setting": "Male HLA-B27 rats [4]; Day 5", "value": 0}, {"measurement": "Joint inflammation score", "setting": "Male HLA-B27 rats [4]; Day 6", "value": 0}, {"measurement": "Joint inflammation score", "setting": "Male HLA-B27 rats [4]; Day 7", "value": 0}, {"measurement": "Joint inflammation score", "setting": "Male HLA-B27 rats [4]; Day 8", "value": 0.25}, {"measurement": "Joint inflammation score", "setting": "Male HLA-B27 rats [4]; Day 9", "value": 0.75}, {"measurement": "Joint inflammation score", "setting": "Male HLA-B27 rats [4]; Day 10", "value": 0.5}, {"measurement": "Joint inflammation score", "setting": "Male HLA-B27 rats [4]; Day 11", "value": 0.5}, {"measurement": "Joint inflammation score", "setting": "Male HLA-B27 rats [4]; Day 12", "value": 0.25}, {"measurement": "Joint inflammation score", "setting": "Male HLA-B27 rats [4]; Day 13", "value": 0.5}, {"measurement": "Joint inflammation score", "setting": "Male HLA-B27 rats [4]; Day 14", "value": 0}, {"measurement": "Joint inflammation score", "setting": "Male HLA-B27 rats [4]; Day 15", "value": 0.5}, {"measurement": "Joint inflammation score", "setting": "Male HLA-B27 rats [4]; Day 16", "value": 0.5}, {"measurement": "Joint inflammation score", "setting": "Male HLA-B27 rats [4]; Day 17", "value": 0.25}, {"measurement": "Joint inflammation score", "setting": "Male HLA-B27 rats [4]; Day 18", "value": 0.75}, {"measurement": "Joint inflammation score", "setting": "Male HLA-B27 rats [4]; Day 19", "value": 1}, {"measurement": "Joint inflammation score", "setting": "Male HLA-B27 rats [4]; Day 22", "value": 1}, {"measurement": "Joint inflammation score", "setting": "Male HLA-B27 rats [4]; Day 23", "value": 1.75}, {"measurement": "Joint inflammation score", "setting": "Male HLA-B27 rats [4]; Day 24", "value": 1.75}, {"measurement": "Joint inflammation score", "setting": "Male HLA-B27 rats [4]; Day 25", "value": 2}, {"measurement": "Joint inflammation score", "setting": "Male HLA-B27 rats [4]; Day 26", "value": 3}, {"measurement": "Fibrosis (0-2), mean ± SD", "setting": "Male HLA-B27 rats [5]", "value": "0.31 ± 0.32"}, {"measurement": "Inflammation (0-3), mean ± SD", "setting": "Male HLA-B27 rats [5]", "value": "1.81 ± 0.13"}, {"measurement": "Lesion depth (0-2), mean ± SD", "setting": "Male HLA-B27 rats [5]", "value": "0.63 ± 0.32"}, {"measurement": "Total score, mean ± SD", "setting": "Male HLA-B27 rats [5]", "value": "3.50 ± 1.10"}, {"measurement": "Ulceration (0-2), mean ± SD", "setting": "Male HLA-B27 rats [5]", "value": "0.75 ± 0.46"}]}
{"smiles": "C=C(F)c1cc(O)cc2nc(-c3ccc(O)c(F)c3)oc12", "note": "[Example 64, 2-(3-FLUORO-4-HYDROXYPHENYL)-7-(1-FLUOROVI NYL)-1,3-BENZOXAZOL-5-OL]", "values": [{"measurement": "mean uterine weight ± SEM", "setting": "[1]", "value": "9.8 ± 0.7", "unit": "mg"}, {"measurement": "Progesterone receptor mRNA (mean ± stdev)", "setting": "[2]", "value": "431.3 ± 65.6", "unit": "arbitrary units"}, {"measurement": "IC50", "setting": "human ERα", "value": 376, "unit": "nM"}, {"measurement": "IC50", "setting": "human ERβ", "value": 3, "unit": "nM"}]}
